# Reference: publication PMC6979384, “Characterization of the plant homeodomain (PHD) reader family for their histone tail interactions” (Epigenetics & Chromatin, 2020)
# Where no end group is shown, it is not given here.
# What was measured:
# Assay in all cases: Histone peptide microarray
# Format in all cases: binding, human
# TAF3 = conditions: GST-tagged TAF3, arrays performed twice
# Summary of the method: (§1)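 Mean ± SD of 4 replicate array intensities; GST-PHD finger at 0.5 μM against 293 PTM-bearing histone peptides.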
# PHF2 = conditions: GST-tagged PHF2, arrays performed twice
# Summary of the method: as §1
# DIDO1 = conditions: GST-tagged DIDO1, arrays performed twice
# Summary of the method: as §1
# KDM7A = conditions: GST-tagged KDM7A, arrays performed twice
# Summary of the method: as §1
# PHF21A = conditions: GST-tagged PHF21A, arrays performed twice
# Summary of the method: as §1
# PHF23 = conditions: GST-tagged PHF23, arrays performed twice
# Summary of the method: as §1
# CHD4 (PPCC) = conditions: arrays performed twice
# Summary of the method: as §1
# CHD5 (PCC) = conditions: arrays performed twice
# Summary of the method: as §1
# KDM5B (1) = conditions: GST-tagged KDM5B (1), arrays performed twice
# Summary of the method: as §1
# CHD5 (PPCC) = conditions: arrays performed twice
# Summary of the method: as §1
# ING3 = conditions: GST-tagged ING3, arrays performed twice
# Summary of the method: as §1
# KDM5A (3) = conditions: GST-tagged KDM5A (3), arrays performed twice
# Summary of the method: as §1
# ING5 = conditions: GST-tagged ING5, arrays performed twice
# Summary of the method: as §1
# ING1 = conditions: GST-tagged ING1, arrays performed twice
# Summary of the method: as §1
# BAZ2B = conditions: GST-tagged BAZ2B, arrays performed twice
# Summary of the method: as §1
# ING4 = conditions: GST-tagged ING4, arrays performed twice
# Summary of the method: as §1
# ING2 = conditions: GST-tagged ING2, arrays performed twice
# Summary of the method: as §1
# PHF8 = conditions: GST-tagged PHF8, arrays performed twice
# Summary of the method: as §1
# PHF13 = conditions: GST-tagged PHF13, arrays performed twice
# Summary of the method: as §1
# RAG2 = conditions: GST-tagged RAG2, arrays performed twice
# Summary of the method: as §1
# KDM4C (TTP) = conditions: arrays performed twice
# Summary of the method: as §1
# AIRE (PP) = conditions: GST-tagged AIRE (PP), arrays performed twice
# Summary of the method: as §1
# BPTF (PB) = conditions: arrays performed twice
# Summary of the method: as §1
# DPF2 (PPC2W2) = conditions: arrays performed twice
# Summary of the method: as §1
# SP140L = conditions: GST-tagged SP140L, arrays performed twice
# Summary of the method: as §1
# TRIM66 (PB) = conditions: arrays performed twice
# Summary of the method: as §1
# KDM5B (3) = conditions: GST-tagged KDM5B (3), arrays performed twice
# Summary of the method: as §1
# MORC3 (CW) = conditions: arrays performed twice
# Summary of the method: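 GST-tagged PHD readers, 0.5 μM, probed on a microarray of 293 synthetic histone peptides carrying single or combinatorial PTMs (optimized Petell protocol). Signals are averaged over 4 replicates and expressed as relative binding.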
# PHRF1 (RP) = conditions: GST-tagged PHRF1 (RP), arrays performed twice
# Summary of the method: as §1
# KDM5A (1) = conditions: GST-tagged KDM5A (1), arrays performed twice
# Summary of the method: as §1
# MLL5 = conditions: GST-tagged MLL5, arrays performed twice
# Summary of the method: as §1
# [1] = sheet "Array Heatmap", total replicate number n = 4
substance,measurement,setting,value
"H3 (52-61): H3 52-61 (RRYQKSTELL; UniProt P68431 53-62, looked up, fragment)","Array Heatmap signal, TAF3",TAF3; [1],0.3129
same,"Array Heatmap signal, PHF2",PHF2; [1],0.6756
same,"Array Heatmap signal, DIDO1",DIDO1; [1],0.9
same,"Array Heatmap signal, KDM7A",KDM7A; [1],0.4034
same,"Array Heatmap signal, PHF21A",PHF21A; [1],0.5243
same,"Array Heatmap signal, PHF23",PHF23; [1],0.6261
same,"Array Heatmap signal, CHD4 (PPCC)","CHD4 (PPCC); sheet ""Array Heatmap"", GST-tagged CHD4 (PPCC), total replicate number n = 4",0.678
same,"Array Heatmap signal, CHD5 (PCC)","CHD5 (PCC); sheet ""Array Heatmap"", GST-tagged CHD5 (PCC), total replicate number n = 4",0.8381
same,"Array Heatmap signal, KDM5B (1)",KDM5B (1); [1],0.6945
same,"Array Heatmap signal, CHD5 (PPCC)","CHD5 (PPCC); sheet ""Array Heatmap"", GST-tagged CHD5 (PPCC), total replicate number n = 4",0.6595
same,"Array Heatmap signal, ING3",ING3; [1],0.5651
same,"Array Heatmap signal, KDM5A (3)",KDM5A (3); [1],0.5465
same,"Array Heatmap signal, ING5",ING5; [1],0.4351
same,"Array Heatmap signal, ING1",ING1; [1],0.6486
same,"Array Heatmap signal, BAZ2B",BAZ2B; [1],0.5444
same,"Array Heatmap signal, ING4",ING4; [1],0.5513
same,"Array Heatmap signal, ING2",ING2; [1],0.6326
same,"Array Heatmap signal, PHF8",PHF8; [1],0.404
same,"Array Heatmap signal, PHF13",PHF13; [1],0.7152
same,"Array Heatmap signal, RAG2",RAG2; [1],0.2955
same,"Array Heatmap signal, KDM4C (TTP)","KDM4C (TTP); sheet ""Array Heatmap"", GST-tagged KDM4C (TTP), total replicate number n = 4",0.5685
same,"Array Heatmap signal, AIRE (PP)",AIRE (PP); [1],0.514
same,"Array Heatmap signal, BPTF (PB)","BPTF (PB); sheet ""Array Heatmap"", GST-tagged BPTF (PB), total replicate number n = 4",0.412
same,"Array Heatmap signal, DPF2 (PPC2W2)","DPF2 (PPC2W2); sheet ""Array Heatmap"", GST-tagged DPF2 (PPC2W2), total replicate number n = 4",0.817
same,"Array Heatmap signal, SP140L",SP140L; [1],0.4012
same,"Array Heatmap signal, TRIM66 (PB)","TRIM66 (PB); sheet ""Array Heatmap"", GST-tagged TRIM66 (PB), total replicate number n = 4",0.6688
same,"Array Heatmap signal, KDM5B (3)",KDM5B (3); [1],0.517
same,"Array Heatmap signal, MORC3 (CW)","MORC3 (CW); sheet ""Array Heatmap"", GST-tagged MORC3 (CW), total replicate number n = 4",0.4348
same,"Array Heatmap signal, PHRF1 (RP)",PHRF1 (RP); [1],0.5632
same,"Array Heatmap signal, KDM5A (1)",KDM5A (1); [1],0.5239
same,"Array Heatmap signal, MLL5",MLL5; [1],0.6079
"H3 (74-84) N-ac: H3 74-84 (Ac-IAQDFKTDLRF; UniProt P68431 75-85, looked up, fragment)","Array Heatmap signal, TAF3","TAF3; histone peptide array, n of 4",0.2845
same,"Array Heatmap signal, PHF2","PHF2; histone peptide array, n of 4",0.5329
same,"Array Heatmap signal, DIDO1","DIDO1; histone peptide array, n of 4",0.7101
same,"Array Heatmap signal, KDM7A","KDM7A; histone peptide array, n of 4",0.3521
same,"Array Heatmap signal, PHF21A","PHF21A; histone peptide array, n of 4",0.4735
same,"Array Heatmap signal, PHF23","PHF23; histone peptide array, n of 4",0.5407
same,"Array Heatmap signal, CHD4 (PPCC)","CHD4 (PPCC); GST-tagged CHD4 (PPCC = Dual PHD + Dual Chromodomain), histone peptide array, n of 4",0.602
same,"Array Heatmap signal, CHD5 (PCC)","CHD5 (PCC); GST-tagged CHD5 (PCC = PHD + Dual Chromodomain), histone peptide array, n of 4",0.8195
same,"Array Heatmap signal, KDM5B (1)","KDM5B (1); histone peptide array, n of 4",0.7009
same,"Array Heatmap signal, CHD5 (PPCC)","CHD5 (PPCC); GST-tagged CHD5 (PPCC = Dual PHD + Dual Chromodomain), histone peptide array, n of 4",0.5613
same,"Array Heatmap signal, ING3","ING3; histone peptide array, n of 4",0.5027
same,"Array Heatmap signal, KDM5A (3)","KDM5A (3); histone peptide array, n of 4",0.4833
same,"Array Heatmap signal, ING5","ING5; histone peptide array, n of 4",0.3669
same,"Array Heatmap signal, ING1","ING1; histone peptide array, n of 4",0.5586
same,"Array Heatmap signal, BAZ2B","BAZ2B; histone peptide array, n of 4",0.4698
same,"Array Heatmap signal, ING4","ING4; histone peptide array, n of 4",0.4711
same,"Array Heatmap signal, ING2","ING2; histone peptide array, n of 4",0.6419
same,"Array Heatmap signal, PHF8","PHF8; histone peptide array, n of 4",0.3664
same,"Array Heatmap signal, PHF13","PHF13; histone peptide array, n of 4",0.618
same,"Array Heatmap signal, RAG2","RAG2; histone peptide array, n of 4",0.2671
same,"Array Heatmap signal, KDM4C (TTP)","KDM4C (TTP); GST-tagged KDM4C (TTP = Tandem Tudor domain + PHD), histone peptide array, n of 4",0.495
same,"Array Heatmap signal, AIRE (PP)","AIRE (PP); histone peptide array, n of 4",0.4661
same,"Array Heatmap signal, BPTF (PB)","BPTF (PB); GST-tagged BPTF (PB = PHD + Bromodomain), histone peptide array, n of 4",0.3549
same,"Array Heatmap signal, DPF2 (PPC2W2)","DPF2 (PPC2W2); GST-tagged DPF2 (PPC2W2 = Dual PHD + C2W2-type Zn-finger), histone peptide array, n of 4",0.6686
same,"Array Heatmap signal, SP140L","SP140L; histone peptide array, n of 4",0.3545
same,"Array Heatmap signal, TRIM66 (PB)","TRIM66 (PB); GST-tagged TRIM66 (PB = PHD + Bromodomain), histone peptide array, n of 4",0.6043
same,"Array Heatmap signal, KDM5B (3)","KDM5B (3); histone peptide array, n of 4",0.4839
same,"Array Heatmap signal, MORC3 (CW)","MORC3 (CW); GST-tagged MORC3 (CW = CW-type Zn-finger), histone peptide array, n of 4",0.4011
same,"Array Heatmap signal, PHRF1 (RP)","PHRF1 (RP); histone peptide array, n of 4",0.4448
same,"Array Heatmap signal, KDM5A (1)","KDM5A (1); histone peptide array, n of 4",0.4913
same,"Array Heatmap signal, MLL5","MLL5; histone peptide array, n of 4",0.5353
